The target of this assay is SARS-CoV-2 3CLpro (Severe acute respiratory syndrome coronavirus 2, UniProt P0DTD1). Briefly: biochemical. The format is biochemical. The note with it: for inhibition at 5 µM: 4 h. On the set-up: Replicate_1 / Replicate_2 / mean / mean (LOPAC_screen_w_protease): unit not given here.
Where [1] appears, read: LOPAC1280 primary screen with protease, 5 µM compound, replicate 1, read-out: Replicate_1 (LOPAC_screen_w_protease).
Setting [2] is: LOPAC1280 primary screen with protease, 5 µM compound, replicate 2, read-out: Replicate_2 (LOPAC_screen_w_protease).
Setting [3] is: LOPAC1280 primary screen with protease, 5 µM compound, mean of two replicates.
The mark [4] stands for this setting: sheet LOPAC_screen_w_protease, primary screen with protease, compound at 5 µM, mean of two replicates, read-out: mean.
[5] abbreviates: sheet LOPAC_screen_w_protease, primary screen with protease, compound at 5 µM, replicate 1, read-out: Replicate_1.
Where [6] appears, read: sheet LOPAC_screen_w_protease, primary screen with protease, compound at 5 µM, replicate 2, read-out: Replicate_2.
[7] abbreviates: sheet LOPAC_screen_w_protease, LOPAC1280 primary screen at 5 µM, with protease, mean of the two replicates.
The mark [8] stands for this setting: sheet LOPAC_screen_w_protease, LOPAC1280 primary screen at 5 µM, with protease, replicate 1.
Setting [9] is: sheet LOPAC_screen_w_protease, LOPAC1280 primary screen at 5 µM, with protease, replicate 2.
Where [10] appears, read: LOPAC1280 primary screen with protease, 5 µM compound, replicate 1.
The mark [11] stands for this setting: LOPAC1280 primary screen with protease, 5 µM compound, replicate 2.
Setting [12] is: sheet LOPAC_screen_w_protease, primary screen with protease, mean of two replicates, read-out: mean.
[13] abbreviates: sheet LOPAC_screen_w_protease, primary screen with protease, replicate 1, read-out: Replicate_1.
The mark [14] stands for this setting: sheet LOPAC_screen_w_protease, primary screen with protease, replicate 2, read-out: Replicate_2.

Molecules are shown by their SMILES. Structures can show the parent of a compound that is named as a salt. Where two headings read alike, the source gives them in different places.

Turning to `CC(C[N+](C)(C)C)OC(N)=O` (stereo not drawn) [Bethanechol chloride], the inhibition at 5 µM reads like this: under setting [1], 0.465%; under setting [2], 2.25%. Further, the “mean (LOPAC_screen_w_protease)” value under setting [3] is recorded as 1.356.
With `C=CCc1ccccc1OCC(O)CNC1(C)CCC(C(C)(C)NC(=O)CBr)CC1` (stereo not drawn) [Bromoacetyl alprenolol menthane], the inhibition at 5 µM is, setting by setting: (sheet LOPAC_screen_w_protease, LOPAC1280 at 5 µM, mean of two replicates, read-out: mean) 1.3%; (sheet LOPAC_screen_w_protease, LOPAC1280 at 5 µM, replicate 1, read-out: Replicate_1) 0.0303%; (sheet LOPAC_screen_w_protease, LOPAC1280 at 5 µM, replicate 2, read-out: Replicate_2) 2.58%.
As for `C[N+](C)(C)CCOC(=O)CBr.[Br-]` [Bromoacetylcholine bromide], where the note is “sheet LOPAC_screen_w_protease, primary screen with protease, mean of two replicates”, the mean is on record as 2.401. This compound also had a Replicate_1 (sheet LOPAC_screen_w_protease, primary screen with protease, replicate 1) of 0.6425. The Replicate_2 (sheet LOPAC_screen_w_protease, primary screen with protease, replicate 2) was determined as 4.16.
Consider `CCCC1O[C@@H]2C[C@H]3[C@@H]4CCC5=CC(=O)C=C[C@]5(C)[C@H]4[C@@H](O)C[C@]3(C)[C@]2(C(=O)CO)O1` (stereo partly drawn) [Budesonide], for which the inhibition at 5 µM under setting [4] was found to be 3.01%, the inhibition at 5 µM under setting [5] turned out to be 1.81% and the inhibition at 5 µM under setting [6] turned out to be 4.21%.
For the compound `CCCCNc1cc(C(=O)O)cc(S(N)(=O)=O)c1Oc1ccccc1` [Bumetanide], the inhibition at 5 µM is -0.596% (read-out: Replicate_1), 1.11% (read-out: Replicate_2) and 0.258% (read-out: mean).
The matching figures for `CC(NC(C)(C)C)C(=O)c1cccc(Cl)c1` (stereo not drawn) [Bupropion hydrochloride]: 2.66%, 2.67% and 2.67%.
Compound `CCCN(CCC)C(=O)Cc1c(-c2ccc(Cl)cc2)nc2c(Cl)cc(Cl)cn12` [CB34] registered a Replicate_1 of 2.062, a Replicate_2 of 2.367 and a mean of 2.2145.
Take `NC(=O)c1cc(N2CC2)c([N+](=O)[O-])cc1[N+](=O)[O-]` [CB 1954]: the inhibition at 5 µM by setting is: under setting [1], 0.308%; under setting [2], 3.06%. In addition, under setting [3], the “mean (LOPAC_screen_w_protease)” value worked out at 1.686.
The compound `CS(=O)(=O)O.Cn1cc(C(F)(F)F)nc1-c1ccc(OCC(O)CNCCOc2ccc(O)c(C(N)=O)c2)cc1` (stereo not drawn) [CGP 20712A methanesulfonate] had a mean under setting [7] of 0.4402. Also, the Replicate_1 under setting [8] worked out at 1.402. The Replicate_2 under setting [9] was -0.5212.
`CC(C)(CO)Cc1cc(C(C)(C)C)c(O)c(C(C)(C)C)c1` [CGP-7930] showed a mean (sheet LOPAC_screen_w_protease, LOPAC1280 at 5 µM, mean of two replicates) of 1.164. Moreover, the Replicate_1 (sheet LOPAC_screen_w_protease, LOPAC1280 at 5 µM, replicate 1) is reported as 0.8273. For the same compound, the Replicate_2 (sheet LOPAC_screen_w_protease, LOPAC1280 at 5 µM, replicate 2) was 1.5.
As to `CC(C)(C=O)Cc1cc(C(C)(C)C)c(O)c(C(C)(C)C)c1` [CGP-13501], under setting [3], the “mean (LOPAC_screen_w_protease)” value is listed as 1.552. Besides, under setting [10], the “Replicate_1 (LOPAC_screen_w_protease)” value is on record as -0.1889. Besides, the “Replicate_2 (LOPAC_screen_w_protease)” value under setting [11] is recorded as 3.292.
Consider `CCn1cnc2c(Nc3cccc(Cl)c3)nc(N[C@@H]3CCCC[C@@H]3N)nc21.Cl` [CGP-74514A hydrochloride], for which the mean under setting [7] was determined as 0.7839. In addition, the Replicate_1 under setting [8] stood at 2.043. Under setting [9], this compound had a Replicate_2 of -0.4753.
Take `CN1CCN(c2nc3cc(C(F)(F)F)ccc3n3cccc23)CC1.O=C(O)/C=C\C(=O)O` [CGS-12066A maleate]: under setting [7], the mean was 0.5818. The compound also showed a Replicate_1 under setting [8] of 1.428. Besides, the Replicate_2 under setting [9] was -0.2648.
On to `Nc1nc2ccc(Cl)cc2c2nc(-c3ccco3)nn12` [CGS-15943], for which the inhibition at 5 µM turned out to be 3.31% (read-out: Replicate_1), 3.81% (read-out: Replicate_2) and 3.56% (read-out: mean).
As to `CCNC(=O)[C@H]1O[C@@H](n2cnc3c(N)nc(NCCc4ccc(CCC(=O)O)cc4)nc32)[C@H](O)[C@@H]1O.Cl` [CGS-21680 hydrochloride], the mean (sheet LOPAC_screen_w_protease, primary screen of LOPAC1280 at 5 µM with protease, mean of the two replicates) is on record as 3.628. In addition, the Replicate_1 (sheet LOPAC_screen_w_protease, primary screen of LOPAC1280 at 5 µM with protease, replicate 1) stood at 4.89. The compound further returned a Replicate_2 (sheet LOPAC_screen_w_protease, primary screen of LOPAC1280 at 5 µM with protease, replicate 2) of 2.366.
Consider `C[C@H](Cc1ccc2c(c1)OC(C(=O)[O-])(C(=O)[O-])O2)NC[C@H](O)c1cccc(Cl)c1.[Na+].[Na+]` [CL 316,243], for which the “Replicate_1 (LOPAC_screen_w_protease)” value is recorded as 0.6829, the “Replicate_2 (LOPAC_screen_w_protease)” value is reported as 2.815 and the “mean (LOPAC_screen_w_protease)” value was determined as 1.749.
With `N#Cc1cc2nc([O-])c([O-])nc2cc1[N+](=O)[O-].[Na+].[Na+]` [CNQX disodium], under setting [7], the mean is reported as 0.7558. This compound also registered a Replicate_1 under setting [8] of 2.8399. Under setting [9], the Replicate_2 is listed as -1.328.
In the case of `CCCCCCC(C)(C)c1ccc([C@@H]2C[C@H](O)CC[C@H]2CCCO)c(O)c1` [CP55940], the inhibition at 5 µM under setting [12] worked out at 2.22%, the inhibition at 5 µM under setting [13] came out at 1.74% and the inhibition at 5 µM under setting [14] amounted to 2.71%.
Turning to `CC1(C)CCC(NC(=O)[C@@H](N)CCC(=O)O)CC1` [CR 2249], the inhibition at 5 µM (sheet LOPAC_screen_w_protease, LOPAC1280 primary screen with protease, 5 µM compound, mean of the two replicates, read-out: mean) amounted to 5.2%; the inhibition at 5 µM (sheet LOPAC_screen_w_protease, LOPAC1280 primary screen with protease, 5 µM compound, replicate 1, read-out: Replicate_1) is 4.44%; the inhibition at 5 µM (sheet LOPAC_screen_w_protease, LOPAC1280 primary screen with protease, 5 µM compound, replicate 2, read-out: Replicate_2) was 5.96%.
As for `Cc1cc(C)c(NC(=O)C[C@H](CC(=O)O)c2cccc3ccccc23)c(C(=O)N2CCC3(CCCC3)CC2)c1` [CR 2945], the inhibition at 5 µM is, setting by setting: under setting [1], 3.19%; under setting [2], 0.22%. For the same compound, the “mean (LOPAC_screen_w_protease)” value under setting [3] came to 1.703.
Turning to `CCCCCCCCCCCCCCCCCCNC(=O)OCC(COP(=O)([O-])OCC[n+]1ccsc1)OC` (stereo not drawn) [CV-3988], under setting [3], the “mean (LOPAC_screen_w_protease)” value came to 1.326. Besides, the “Replicate_1 (LOPAC_screen_w_protease)” value under setting [10] was -0.07699. The “Replicate_2 (LOPAC_screen_w_protease)” value under setting [11] came out at 2.73.
Take `O=C(c1ccc2c(c1)OCCO2)N1CCCCC1` [CX 546]: the Replicate_1 worked out at 1.108, the Replicate_2 is -1.5724 and the mean is listed as -0.2323.
Take `Cn1c(=O)c2c(ncn2C)n(C)c1=O` [Caffeine]: the inhibition at 5 µM runs as follows: under setting [12], 2.35%; under setting [13], 1.98%; under setting [14], 2.71%.
For the compound `CNc1ccc2oc(C[C@H]3O[C@@]4(CC[C@H]3C)O[C@H]([C@H](C)C(=O)c3ccc[nH]3)[C@H](C)C[C@H]4C)nc2c1C(=O)O` [Calcimycin], the inhibition at 5 µM reads like this: under setting [4], 3.09%; under setting [5], 2.08%; under setting [6], 4.1%.
Regarding `Clc1ccc(C(c2ccc(Cl)cc2)n2cc[n+](CC(OCc3ccc(Cl)cc3Cl)c3ccc(Cl)cc3Cl)c2)cc1` (stereo not drawn) [Calmidazolium chloride], the inhibition at 5 µM amounted to 9.31% (sheet LOPAC_screen_w_protease, primary screen at 5 µM, mean of two replicates, read-out: mean (LOPAC screen with protease)); 8.14% (sheet LOPAC_screen_w_protease, primary screen at 5 µM, replicate 1, read-out: Replicate_1 (LOPAC screen with protease)); 10.5% (sheet LOPAC_screen_w_protease, primary screen at 5 µM, replicate 2, read-out: Replicate_2 (LOPAC screen with protease)).
In the case of `CC1(C(=O)O)C2CCC(O2)C1(C)C(=O)O` (stereo not drawn) [Cantharidic Acid], the inhibition at 5 µM is 2.04% under setting [1] and 1.78% under setting [2]. Besides, the “mean (LOPAC_screen_w_protease)” value (LOPAC1280 primary screen with protease, 5 µM compound, mean of the two replicates) came out at 1.914.
In the case of `C[C@@]12C(=O)OC(=O)[C@]1(C)[C@H]1CC[C@@H]2O1` [Cantharidin], the inhibition at 5 µM is 1.95% (read-out: Replicate_1), 0.0268% (read-out: Replicate_2) and 0.988% (read-out: mean).
For `C[N+](C)(C)CCOC(N)=O` [Carbachol], the inhibition at 5 µM by setting is: under setting [1], 1.69%; under setting [2], 1.06%. Moreover, the “mean (LOPAC_screen_w_protease)” value under setting [3] worked out at 1.3763.
In the case of `NC(=O)N1c2ccccc2C=Cc2ccccc21` [Carbamazepine], the “mean (LOPAC_screen_w_protease)” value worked out at 1.395. Besides, for the setting “read-out: Replicate_1 (LOPAC_screen_w_protease)”, the inhibition at 5 µM came to 1.4%. Further, the inhibition at 5 µM (read-out: Replicate_2 (LOPAC_screen_w_protease)) worked out at 1.39%.
For the compound `CCN(CC)CCOCCOC(=O)C1(c2ccccc2)CCCC1` [Carbetapentane citrate], the inhibition at 5 µM runs as follows: under setting [1], 2.35%; under setting [2], 1.05%. For the same compound, the “mean (LOPAC_screen_w_protease)” value under setting [3] was determined as 1.698.
Regarding `N.N.O=C([O-])C1(C(=O)[O-])CCC1.[Pt+2]` [Carboplatin], the mean (sheet LOPAC_screen_w_protease, primary screen with protease, compound at 5 µM, mean of two replicates) is given as 2.889. This compound also registered a Replicate_1 (sheet LOPAC_screen_w_protease, primary screen with protease, compound at 5 µM, replicate 1) of 1.772. This compound also came in with a Replicate_2 (sheet LOPAC_screen_w_protease, primary screen with protease, compound at 5 µM, replicate 2) of 4.006.
